Assays:
Type in all cases: in vivo, mouse
[1] = tested on: RD embryonal rhabdomyosarcoma xenograft; assay: CCI-779 suppression of RD rhabdomyosarcoma xenograft tumor growth; conditions: RD orthotopic xenograft, SCID beige mice, 20 mg/kg IP every 3 days for 30 days, calipers
Protocol: (§1) (FIG. 6A) Time dependent CCI-779 inhibition of phosphorylation of mTOR pathway downstream substrates within tumor tissue in a xenograft treatment model. […] (FIG. 6B) CCI-779 inhibited tumor growth in Rh30 and RD mouse xenograft models. 2×10^6 cells in 0.2 mL total volume per mouse, from either Rh30 alveolar or RD embryonal cell lines, were injected orthotopically into the left hind leg gastrocnemius muscle of a SCID beige murine model. After 1 week, mice were assigned to control (n=8) or CCI-779 treatment groups (n=8). Tumor volume, as measured with calipers, was less in the CCI-779 treatment group as compared to the vehicle alone for both the Rh30 and RD xenografts --▴-- RD control, -▪- Rh30 plus CCI-779, -- ♦-- Rh30 control --X- RD plus CCI-779, (RD p=0.00008; Rh30 p=0.0002, Student's t-test). (FIG. 6C) CCI-779 was administered at 20 mg/kg/IP every 3 days for 30 days. Protein extracts from Rh30 and RD mouse xenograft tumors or uninvolved muscle were treated with CCI-779 or vehicle for 30 days and analyzed by Western blotting for S6 and 4EBP1 phosphorylation.
(§2) 5. In vivo xenograft tumor model. […] Tumor growth was measured every 3 days with calipers, and tumor volume was calculated by the formula V (mm^3)=a×b^2, where a is the longest tumor axis, and b is the shortest tumor axis. […]

[2] = tested on: mTOR pathway substrates pS6 Ser235/236 and 4EBP1 Thr70; assay: Time dependent inhibition of phosphorylation of mTOR pathway downstream substrates in xenograft treatment model (FIG. 6A); conditions: non-involved muscle and tumor tissue, compared to actin
Protocol: as §1, §2

[3] = tested on: Rh30 alveolar rhabdomyosarcoma xenograft; assay: CCI-779 suppression of Rh30 rhabdomyosarcoma xenograft tumor growth; conditions: Rh30 orthotopic xenograft, SCID beige mice, 20 mg/kg IP every 3 days for 30 days, calipers
Protocol: as §1, §2

[4] = tested on: mTOR downstream targets 4EBP1 and S6; assay: Western blotting for S6 and 4EBP1 phosphorylation, RD xenograft tumors or uninvolved muscle
Protocol: as §1, §2

[5] = tested on: mTOR downstream targets 4EBP1 and S6; assay: Western blotting for S6 and 4EBP1 phosphorylation, Rh30 xenograft tumors or uninvolved muscle
Protocol: as §1, §2

CO[C@H]1C[C@@H]2CC[C@@H](C)[C@@](O)(O2)C(=O)C(=O)N2CCCC[C@H]2C(=O)O[C@H]([C@H](C)C[C@@H]2CC[C@@H](OC(=O)C(C)(CO)CO)[C@H](OC)C2)CC(=O)[C@H](C)/C=C(\C)[C@@H](O)[C@@H](OC)C(=O)[C@H](C)C[C@H](C)/C=C/C=C/C=C/1C [CCI-779, 40-[3-hydroxy(hydroxymethyl)methylpropanoate]-rapamycin]
Tumor volume / tumor growth compared to vehicle alone [1]: less and profoundly reduced the growth
Phosphorylation of 4EBP1 Thr70 [2]: inhibited phosphorylation
Phosphorylation of pS6 Ser235/236 [2]: inhibited phosphorylation
Tumor volume / tumor growth compared to vehicle alone [3]: less and profoundly reduced the growth
Phosphorylation of mTOR downstream targets (4EBP1 and S6) ([4]; RD embryonal xenograft derived tumors): inhibited the expected phosphorylation
Phosphorylation of 4EBP1 ([4]; RD muscle and tumor cells, 20 mg/kg IP every 3 days for 30 days, Western blot): suppresses phosphorylation
Phosphorylation of mTOR downstream targets (4EBP1 and S6) ([5]; Rh30 alveolar xenograft derived tumors): inhibited the expected phosphorylation
Phosphorylation of 4EBP1 ([5]; Rh30 muscle and tumor cells, 20 mg/kg IP every 3 days for 30 days, Western blot): suppresses phosphorylation

Source: patent publication US8628931B2, “mTOR pathway theranostic” (George Mason Intellectual Properties, Inc., priority 2005, dated 2014)
